The results in this text go back to US7074796B2 (H. Lundbeck A/S, priority 1999, dated 2006).

By melting point is commonly meant the temperature, or range, at which the solid turns liquid. In general, IC50 refers to the point on the concentration scale where inhibition reaches its midpoint. For orientation: inhibition means the percentage by which the read-out fell short of the control.

Where a name gives a salt, the structure may show the parent alone.

Data set [1] addresses T1, human cloned dopamine D4.2 receptors (Homo sapiens, UniProt P21917, DEL265-296).
T1 construct: expressed in transfected cells; host or cells: CHO cells
T1 sequence (P21917 with tags, fused parts or gaps DEL265-296): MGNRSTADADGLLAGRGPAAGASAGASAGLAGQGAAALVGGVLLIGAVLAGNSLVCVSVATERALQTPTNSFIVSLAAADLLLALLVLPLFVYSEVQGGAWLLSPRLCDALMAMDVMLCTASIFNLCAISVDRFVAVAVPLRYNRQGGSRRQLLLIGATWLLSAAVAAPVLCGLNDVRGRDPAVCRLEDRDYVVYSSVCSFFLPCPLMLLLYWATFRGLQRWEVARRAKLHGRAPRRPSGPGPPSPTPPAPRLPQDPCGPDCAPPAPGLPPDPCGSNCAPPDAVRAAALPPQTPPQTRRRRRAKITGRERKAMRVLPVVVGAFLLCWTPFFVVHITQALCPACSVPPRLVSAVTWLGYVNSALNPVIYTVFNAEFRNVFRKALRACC
As to the kind of experiment: Inhibition of the binding of [3H]YM-09151-2 to human dopamine D4 receptors. The settings on record: [3H]YM-09151-2 0.06 nM, membranes of CHO-cells; read-out: D4-bind. IC50. The method, then:
Inhibition of the Binding of [^3H]YM-09151-2 to Human Dopamine D4 Receptors
By this method the inhibition by drugs of the binding of [^3H]YM-09151–2 (0.06 nM) to membranes of human cloned dopamine D4.2 receptors expressed in CHO-cells is determined in vitro. Method modified from NEN Life Science Products, Inc., technical data certificate PC2533-10/96.

In data set [2] the target is T2, human cloned dopamine D3 receptors (Homo sapiens, UniProt P35462).
T2 construct: expressed in transfected cells; host or cells: CHO cells
As to the kind of experiment: Inhibition of the binding of [3H]Spiperone to human D3 receptors. The settings on record: [3H]Spiperone 0.3 nM, membranes of CHO-cells; for inhibition at 0.1 µM: read-out: D3-bind. % inhibition of binding at 100 nM; for IC50: read-out: D3-bind. IC50. Here is the method:
Inhibition of the Binding of [^3H]Spiperone to Human D3 Receptors
By this method the inhibition by drugs of the binding [^3H]Spiperone (0.3 nM) to membranes of human cloned dopamine D3 receptors expressed in CHO-cells is determined in vitro. Method modified from MacKenzie et al. Eur. J. Pharm.-Mol. Pharm. Sec. 1994, 266, 79–85.

A further data set relates to alpha-1 receptors. As to the kind of experiment: Inhibition of binding of [3H]Prazosine to rat alpha-1 receptors. To be noted: [3H]Prazosine 0.25 nM, membranes from rat brain. Here is the method:
Inhibition of Binding of [^3H]Prazosine to Rat Alpha-1 Receptors
By this method the inhibition by drugs of the binding of [^3H]Prazosine (0.25 nM) to alpha-1 receptors in membranes from rat brain is determined in vitro. Method modified from Hyttel et al. J. Neurochem. 1985, 44, 1615–1622.

T2 sequence (P35462 whole entry): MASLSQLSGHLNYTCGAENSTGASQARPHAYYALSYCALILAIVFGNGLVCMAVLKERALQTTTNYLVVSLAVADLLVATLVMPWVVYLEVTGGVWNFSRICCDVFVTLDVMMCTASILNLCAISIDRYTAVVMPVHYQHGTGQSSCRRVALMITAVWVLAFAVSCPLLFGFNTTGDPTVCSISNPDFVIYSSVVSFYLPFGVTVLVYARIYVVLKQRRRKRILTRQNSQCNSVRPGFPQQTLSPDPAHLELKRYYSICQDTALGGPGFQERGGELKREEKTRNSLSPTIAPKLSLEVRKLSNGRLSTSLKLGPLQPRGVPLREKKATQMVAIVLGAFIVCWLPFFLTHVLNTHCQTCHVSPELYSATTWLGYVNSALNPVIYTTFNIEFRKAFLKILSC

Regarding `Clc1cccc(N2CCN(CCCCCN3CCc4ccccc43)CC2)c1Cl` (as salt: hydrochloride) [Compound 2c, 1-{5-[4-(2,3-Dichlorophenyl)piperazin-1-yl]pentyl}-2,3-dihydro-1H-indole], the melting point is 219 to 228 °C.
In the case of `O=C(CCCCN1CCN(c2cccc(Cl)c2Cl)CC1)N1CCc2cc(F)ccc21` [Compound 7c, 5-[4-(2,3-Dichlorophenyl)piperazin-1-yl]-1-(5-fluoro-2,3-dihydro-1H-indol-1-yl)pentan-1-one], the IC50 in data set [1] is 0.061 µM. For the same compound, the inhibition at 0.1 µM in data set [2] (100 nM) came to 92%. The “Alpha-1 % inhibition of binding at 100 nM” value (shortened to “Alpha-1 % inhibition”) in the data set with alpha-1 receptors is reported as 45%.
For `O=C(CCN1CCN(c2cccc(Cl)c2Cl)CC1)N1CCc2ccccc2C1` [Compound 7d, 3-[4-(2,3-Dichlorophenyl)piperazin-1-yl]-1-(3,4-dihydro-1H-isoquinolin-2-yl)-propan-1-one], in data set [1], the IC50 stood at 0.006 µM. Further, the inhibition at 0.1 µM in data set [2] (100 nM) turned out to be 85%. Also, the “Alpha-1 % inhibition” value with alpha-1 receptors stood at 44%.
For the compound `Clc1ccc2c(CCCN3CCN(c4cccc(Cl)c4Cl)CC3)c[nH]c2c1` [Compound 5e, 6-Chloro-3-{3-[4-(2,3-dichlorophenyl)piperazin-1-yl]propyl}-1H-indole], the half-maximal inhibitory concentration (IC50) worked out at 0.027 µM in data set [1] and 0.47 µM on alpha-1 receptors. Besides, the inhibition at 0.1 µM in data set [2] (100 nM) came to 93%.
For `O=C(CCCN1CCN(c2cccc(Cl)c2Cl)CC1)N1CCc2ccccc2C1` [Compound 7e], in data set [1], the 50% inhibitory concentration (IC50) worked out at 0.01 µM. Further, in data set [2] (100 nM), the inhibition at 0.1 µM worked out at 94%. The “Alpha-1 % inhibition” value with alpha-1 receptors was found to be 31%.
Take “5-[4-(2,3-Dichloro-phenyl)-piperazin-1-yl]-1-(3,4-dihydro-1H-isoquinolin-2-yl)propan-1-one [Compound 7f]”: in data set [1], the IC50 is 0.026 µM. Moreover, the “D3-bind. % inhibition of binding at 100 nM” value in data set [2] (100 nM) is given as 95%. Besides, in the data set on alpha-1 receptors, the “Alpha-1 % inhibition” value turned out to be 34%.
Consider `O=C(CCN1CCN(c2ccccc2Cl)CC1)N1CCc2ccccc2C1` [Compound 8k, 3-[4-(2-Chlorophenyl)piperazin-1-yl]-1-(3,4-dihydro-1H-isoquinolin-2-yl)-propan-1-one], for which the IC50 in data set [1] is 0.008 µM. Further, the inhibition at 0.1 µM in data set [2] (100 nM) stood at 73%. The “Alpha-1 % inhibition” value with alpha-1 receptors is given as 92%.
Regarding `O=C(CCN1CCN(c2cccc(Cl)c2Cl)CC1)N1CCc2cc(F)ccc21` [Compound 7a, 3-[4-(2,3-Dichlorophenyl)piperazin-1-yl]-1-(5-fluoro-2,3-dihydro-1H-indol-1-yl)propan-1-one], the half-inhibitory concentration (IC50) in data set [1] came to 0.025 µM. In addition, the inhibition at 0.1 µM in data set [2] (100 nM) turned out to be 73%. For the same compound, the “Alpha-1 % inhibition” value in the data set with alpha-1 receptors turned out to be 38%.
Consider `Fc1ccc2[nH]cc(CCCCN3CCN(c4cccc(Cl)c4Cl)CC3)c2c1` [Compound 5d, 3-{4-[4-(2,3-Dichlorophenyl)piperazin-1-yl]butyl}-5-fluoro-1H-indole], for which the IC50 in data set [1] was found to be 0.0086 µM; in data set [2] it was 0.001 µM; at alpha-1 receptors it was 0.72 µM.
In the case of `O=C(CCCCN1CCN(c2cccc(Cl)c2Cl)CC1)N1CCc2ccccc21` [Compound 1c, 5-[4-(2,3-Dichlorophenyl)piperazin-1-yl]-1-(2,3-dihydro-1H-indol-1-yl)pentan-1-one], the IC50 was 0.039 µM in data set [1], 0.01 µM in data set [2] and 0.16 µM on alpha-1 receptors.
As for `Clc1cccc(N2CCN(CCCc3c[nH]c4ccccc34)CC2)c1Cl` [Compound 5a, 3-{3-[4-(2,3-Dichlorophenyl)piperazin-1-yl]propyl}-1H-indole], the figures for the IC50 (in data set [1]; in data set [2]; on alpha-1 receptors) were 0.0022 µM, 0.0028 µM and 0.41 µM, respectively.
As for `O=C1CCc2ccccc2N1CCCCN1CCN(c2cccc(Cl)c2Cl)CC1` (as salt: hydrochloride) [Compound 6, 1-{4-[4-(2,3-Dichlorophenyl)piperazin-1-yl]butyl}-3,4-dihydroquinolin-2(1H)-one], the melting point was 234 to 235 °C.
In turn, `Clc1cccc(N2CCN(CCCCC3CCc4ccccc43)CC2)c1Cl` (stereo not shown) (as salt: oxalate) [Compound 3, 1-(2,3-Dichlorophenyl)-4-[4-(indan-1-yl)butyl]piperazine] showed a melting point of 171 to 176 °C.
Take `O=C(CCCN1CCN(c2cccc(Cl)c2)CC1)N1CCc2ccccc21` [Compound 1e, 4-[4-(3-Chlorophenyl)piperazin-1-yl]-1-(2,3-dihydro-1H-indol-1-yl)butan-1-one]: the 50% inhibitory concentration (IC50) in data set [1] stood at 0.0021 µM; in data set [2] it was 0.05 µM; on alpha-1 receptors it was 0.017 µM.
Take `Clc1cccc(N2CCN(CCCCN3CCc4ccccc43)CC2)c1Cl` [Compound 2b, 1-{4-[4-(2,3-Dichlorophenyl)piperazin-1-yl]butyl}-2,3-dihydro-1H-indole]: the concentration for half-maximal inhibition (IC50) was determined as 0.012 µM in data set [1] and 0.0031 µM in data set [2]. Moreover, the “Alpha-1 % inhibition” value in the data set with alpha-1 receptors was 10%.
`Clc1ccccc1N1CCN(CCCCN2CCc3ccccc32)CC1` [Compound 2d, 1-{4-[4-(2-Chlorophenyl)piperazin-1-yl]butyl}-2,3-dihydro-1H-indole]: the values for the IC50 (in data set [1]; in data set [2]; on alpha-1 receptors) were 0.0012 µM, 0.004 µM and 0.031 µM, respectively.
On to `Clc1ccc2c(SCCN3CCN(c4cccc(Cl)c4Cl)CC3)c[nH]c2c1` (as salt: oxalate) [Compound 4, 6-Chloro-3-{2-[4-(2,3-dichlorophenyl)piperazin-1-yl]ethylsulfanyl}-1H-indole], for which the melting point was 137 to 141 °C.
In the case of `Clc1cccc(N2CCN(CCCCC3CCc4ccccc43)CC2)c1Cl` (stereo not shown) [Compound 3, 1-(2,3-Dichlorophenyl)-4-[4-(indan-1-yl)butyl]piperazine], the IC50 in data set [1] is 0.011 µM; in data set [2] it was 0.0068 µM. The “Alpha-1 % inhibition” value in the data set with alpha-1 receptors is given as −3%.
With `O=C(CCCN1CCN(c2ccccc2Cl)CC1)N1CCc2ccccc2C1` [Compound 8l, 4-[4-(2-Chlorophenyl)piperazin-1-yl]-1-(3,4-dihydro-1H-isoquinolin-2-yl)-butan-1-one], the IC50 in data set [1] amounted to 0.004 µM. In addition, in data set [2] (100 nM), the inhibition at 0.1 µM came to 88%. The “Alpha-1 % inhibition” value in the data set with alpha-1 receptors is reported as 74%.
